Assay results from patent publication US4123518A, “Insecticidal phosphate ester-based solid composition with depot gas action” (priority 1974, dated 1978).

What was measured:
[1] = Acute oral toxicity, male rats; details: rat, in vivo
male rats = assay: Acute inhalation toxicity, male rats (4 hours' exposure); type: in vivo
[2] = tested on: flies of the species Musca domestica; assay: Percentage of flies lying on their backs after one hour, shaped pieces in a 40 m^3 room (Example 9); type: in vivo; details: shaped piece of Example 5 (Thio-DDVP) or 5a (DDVP)
Description: One shaped piece produced according to Example 5 and one shaped piece produced according to Example 5a were each pushed into a net-like quiver and suspended from the ceiling in the center of identical rooms of 40 m^3 cubic capacity. Immediately thereafter (0), and after 4, 8 and 12 weeks, 200 flies of the species Musca domestica were in each case exposed in the rooms. […] In each case, the percentage of animals which had fallen on their backs was determined 1 hour after exposing the flies.

Musca domestica = assay: Aerosol test (knock-down of 50% of the animals, LT50); type: in vivo; details: comparison experiment, Example 1
Description: The following examples explain the invention in more detail, with "parts" denoting parts by weight.
Test animals: Musca domestica
To produce a suitable preparation of active compound, the active compound was mixed, at a range of concentrations, with the stated solvent.
A wire cage which contained about 25 test animals was suspended in the centre of a gas-tight glass chamber of size 1 m^3. After the chamber had been closed again, 2 ml of the preparation of active compound were atomised in the chamber. The condition of the test animals was constantly checked from outside, through the glass walls, and the time required for a knock-down effect on 50% of the animals was determined.
The active compounds, amounts used and time after which 50% of the animals were lying on their backs (LT50) can be seen from the table which follows: […]

warm-blooded animals = assay: Toxicity to warm-blooded animals compared to DDVP; type: in vivo
[3] = age of the shaped pieces 0 weeks
[4] = age of the shaped pieces 4 weeks
[5] = age of the shaped pieces 8 weeks
[6] = age of the shaped pieces 12 weeks

In the case of `COP(=O)(OC)OC=C(Cl)Cl` [DDVP, dimethyl-2,2-dichlorovinyl phosphate, reference compound], the LD50 [1] is reported as 62 mg/kg, the “LC50 male rats, acute inhalation toxicity” value (male rats) is reported as 340 mg/m^3 and the “percentage of animals lying on their backs after one hour” value (“percentage of animals lying” below) [2, 3] is reported as 80 percentage. For the same molecule, the “percentage of animals lying” value [2, 4] was 70 percentage, the “percentage of animals lying” value [2, 5] was 60 percentage and the “percentage of animals lying” value [2, 6] was 20 percentage.

With `COP(=S)(OC)OC=C(Cl)Cl` [Thio-DDVP, dimethyl-2,2-dichlorovinyl thiophosphate] the LD50 [1] was 773 mg/kg, the “insecticidal action compared to DDVP” value (Musca domestica) was “poorer insecticidal action” and the “tolerance of the maximum possible concentration, acute inhalation toxicity” value (male rats; 477 mg/m^3, maximum possible in the experiment) was “tolerated without symptoms”. The “LC50 male rats, acute inhalation toxicity” value (male rats) was > 477 mg/m^3, the “toxicity to warm-blooded animals compared to DDVP” value (warm-blooded animals) was “lower toxicity to warm-blooded animals” and the “percentage of animals lying” value [2, 3] was 100 percentage. For the same molecule, the “percentage of animals lying” value [2, 4] was 95 percentage, the “percentage of animals lying” value [2, 5] was 90 percentage and the “percentage of animals lying” value [2, 6] was 50 percentage.
